The values below come from US12202818B2, “Compounds and methods for CD73 modulation and indications therefor” (Opna Bio SA, priority 2020, dated 2025).

In general, IC50 refers to the concentration that gives 50% inhibition.

The target in experiment [1] is T1, human CD73 (Homo sapiens, UniProt P21589).
T1 construct: expressed in transfected cells
T1 sequence (P21589 27-549): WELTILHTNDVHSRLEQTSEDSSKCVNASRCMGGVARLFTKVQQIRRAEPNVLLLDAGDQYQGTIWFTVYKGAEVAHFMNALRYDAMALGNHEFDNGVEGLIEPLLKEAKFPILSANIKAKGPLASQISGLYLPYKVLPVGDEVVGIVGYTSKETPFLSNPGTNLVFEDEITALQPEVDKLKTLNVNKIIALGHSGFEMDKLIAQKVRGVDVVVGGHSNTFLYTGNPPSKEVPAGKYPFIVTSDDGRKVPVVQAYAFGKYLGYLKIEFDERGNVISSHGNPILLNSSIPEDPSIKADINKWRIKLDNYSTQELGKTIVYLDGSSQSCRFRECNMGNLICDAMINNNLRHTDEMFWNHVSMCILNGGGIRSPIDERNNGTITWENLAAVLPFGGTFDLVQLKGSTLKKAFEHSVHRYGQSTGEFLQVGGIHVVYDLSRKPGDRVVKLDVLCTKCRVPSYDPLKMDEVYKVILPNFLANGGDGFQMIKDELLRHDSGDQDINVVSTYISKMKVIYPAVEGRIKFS
The experiment is described as follows: Inhibitor activity against CD73 in cell based assay (CD73 expressing CHO-K1 cells). To be noted: CHO-K1 cells expressing human CD73, 150 μM AMP, 4 hours of incubation; read-out: CHO-K1 CELL_VARIANT: CD73 IC50. The protocol:
Determine Inhibitor Activity Against CD73 in Cell Based Assay
CD73 expressing CHO-K1 cell clones were generated upon stable transfection of a plasmid expressing human CD73 under the control of CMV promoter. Cells were selected in Ham's F-12K (Kaighn's) media supplemented with 10% fetal bovine serum and 1 mg/ml G418 at 37° C. in a humidified incubator supplied with 5% CO2. The assays were performed as follows. Cells were seeded in a 96 well plate in 50 μL of culture media at a density of 1×10^4 per well. Compound at a maximal concentration of 5 mM was serially diluted 1:3 in DMSO for a total of 8 point titration. A 2 μL aliquot of each dilution point was added to […] culture media and 25 µL was added to each well, providing 10 μM compound at the maximum concentration point. AMP was diluted in culture media and 25 μL was added to each well with a final concentration of 150 μM. 4 wells containing 0.2% DMSO treated cells and AMP served as high controls and 4 wells containing media only with 0.2% DMSO and AMP served as low controls. After 4 hours of incubation, 20 μL of the supernatant was transferred to a 384 well plate. AMP level in supernatant was measured indirectly by adding 5 μL of CellTiter-Glo® 2.0 reagent and 5 μL of ATP with a final concentration of 1 μM. Following incubation of plate at room temperature for 30 minutes, luminescent signal was read on a Tecan plate reader. The percentage inhibition at individual concentrations relative to high and low controls was calculated. The data were analyzed by using nonlinear regression to generate ICso values.

The target of experiment [2] is T2, Human CD73 (amino acid residues 27-549) (Homo sapiens, UniProt P21589).
T2 construct: Human CD73 (amino acid residues 27-549); His tag (N); made in house; host or cells: E. coli
T2 sequence (P21589 27-549): T1 sequence (P21589 27-549)
Put plainly: CD73 enzymatic assay (luciferase-based indirect assay, CellTiter-Glo). The experiment is classed as biochemical. Particulars: 0.4 nM CD73, 150 μM AMP, 1 hour at room temperature. The procedure:
CD73 enzymatic activity was measured in a luciferase-based indirect assay using CellTiter-Glo® system from Promega. The luciferase reaction in the presence of ATP is inhibited by AMP, a primary substrate of CD73. Addition of CD73 enzyme to the reaction converts AMP to adenosine, and release the inhibition, producing a luminescent signal. Inhibition of CD73 leads to the decrease of this luminescent signal.
Human CD73 (amino acid residues 27-549) with N-Terminal His tag was purified in E. coli. All the assay components were prepared in 50 mM HEPEs buffer (pH 7.4) with 0.01% Tween-20. The CD73 enzymatic assay was performed using 0.4 nM CD73 and 150 μM AMP. 9.5 μL of CD73 protein and 9.5 μL of AMP were added to the wells of a 384 well plate containing lpL of various concentrations of test compound or DMSO vehicle and incubated for 1 hour at room temperature. 16 wells containing CD73, AMP and 5% DMSO served as high control. 16 wells containing AMP and 5% DMSO served as low control. Enzymatic reaction was stopped and AMP level was measured indirectly by adding 5 μL of CellTiter-Glo® 2.0 reagent and 5 μL of ATP with a final concentration of 1 μM. Following incubation of the plate at room temperature for 30 minutes, luminescent signal was read on a Tecan plate reader. The percentage inhibition at individual concentrations relative to high and low controls was calculated. The data were analyzed by using nonlinear regression to generate IC50 values.
In general terms: In ATP-based viability assays light output follows the ATP content of the culture.

As for `Cc1noc(C)c1-c1cc(O[C@H]2CN(c3cnn(CCO)c(=O)c3Cl)C[C@@H]2F)ncc1F` [P-0132, 4-chloro-5-((3S,4S)-3-((4-(3,5-dimethylisoxazol-4-yl)-5-fluoropyridin-2-yl)oxy)-4-fluoropyrrolidin-1-yl)-2-(2-hydroxyethyl)pyridazin-3(2H)-one], the IC50 in experiment [1] and in experiment [2] was 0.001 to 10 µM each time.
Regarding `COC(=O)Cc1ccc(-c2ccnc(O[C@@H]3CCN(c4cn[nH]c(=O)c4Cl)C3)c2)c(F)c1` [P-0218, methyl (R)-2-(4-(2-((1-(5-chloro-6-oxo-1,6-dihydropyridazin-4-yl)pyrrolidin-3-yl)oxy)pyridin-4-yl)-3-fluorophenyl)acetate], the IC50 in experiment [1] and in experiment [2] was 0.001 to 10 µM each time.
Take `Cc1nn(CCC#N)c(C)c1-c1ccnc(O[C@@H]2CCN(c3cn[nH]c(=O)c3Cl)C2)c1` [P-0044, (R)-3-(4-(2-((1-(5-chloro-6-oxo-1,6-dihydropyridazin-4-yl)pyrrolidin-3-yl)oxy)pyridin-4-yl)-3,5-dimethyl-1H-pyrazol-1-yl)propanenitrile]: the IC50 in experiment [1] and in experiment [2] was 0.001 to 10 µM each time.
As to `Cc1nn(C2COC2)c(C)c1-c1ccnc(O[C@@H]2CCN(c3cn[nH]c(=O)c3Cl)C2)c1` [P-0070, (R)-4-chloro-5-(3-((4-(3,5-dimethyl-1-(oxetan-3-yl)-1H-pyrazol-4-yl)pyridin-2-yl)oxy)pyrrolidin-1-yl)pyridazin-3(2H)-one], the IC50 in experiment [1] and in experiment [2] was 0.001 to 10 µM throughout.
Turning to `CCCNS(=O)(=O)c1ccc(-c2ccnc(O[C@@H]3CCN(c4cn[nH]c(=O)c4Cl)C3)c2)cc1` [P-0223, (R)-4-(2-((1-(5-chloro-6-oxo-1,6-dihydropyridazin-4-yl)pyrrolidin-3-yl)oxy)pyridin-4-yl)-N-propylbenzenesulfonamide], the IC50 in experiment [1] and in experiment [2] was 0.001 to 10 µM throughout.
`Cc1nn(CC2(C)COC2)c(C)c1-c1ccnc(O[C@@H]2CCN(c3cn[nH]c(=O)c3Cl)C2)c1` [P-0095, (R)-4-chloro-5-(3-((4-(3,5-dimethyl-1-((3-methyloxetan-3-yl)methyl)-1H-pyrazol-4-yl)pyridin-2-yl)oxy)pyrrolidin-1-yl)pyridazin-3(2H)-one]: the IC50 in experiment [1] and in experiment [2] was 0.001 to 10 µM throughout.
On to `N#CC1CCC(c2ccnc(O[C@@H]3CCN(c4cnn(CCO)c(=O)c4Cl)C3)c2)CC1` (stereo partly drawn) [P-0046, (R)-4-(2-((1-(5-chloro-1-(2-hydroxyethyl)-6-oxo-1,6-dihydropyridazin-4-yl)pyrrolidin-3-yl)oxy)pyridin-4-yl)cyclohexane-1-carbonitrile], for which the IC50 in experiment [1] and in experiment [2] was 0.001 to 10 µM each time.
Take `O=c1[nH]ncc(N2CC[C@@H](Oc3cc(C4=CCCC4)ccn3)C2)c1Cl` [P-0084, (R)-4-chloro-5-(3-((4-(cyclopent-1-en-1-yl)pyridin-2-yl)oxy)pyrrolidin-1-yl)pyridazin-3(2H)-one]: the IC50 in experiment [1] and in experiment [2] was 0.001 to 10 µM in each case.
`O=C(O)C1CC=C(c2ccnc(O[C@@H]3CCN(c4cn[nH]c(=O)c4Cl)C3)c2)CC1` (stereo partly drawn) [P-0050, 4-(2-(((R)-1-(5-chloro-6-oxo-1,6-dihydropyridazin-4-yl)pyrrolidin-3-yl)oxy)pyridin-4-yl)cyclohex-3-ene-1-carboxylic acid]: the IC50 in experiment [1] and in experiment [2] was 0.001 to 10 µM each time.
`Cc1nn(CC2CC(C(N)=O)C2)c(C)c1-c1ccnc(O[C@@H]2CCN(c3cn[nH]c(=O)c3Cl)C2)c1` (stereo partly drawn) [P-0056, (R)-3-((4-(2-((1-(5-chloro-6-oxo-1,6-dihydropyridazin-4-yl)pyrrolidin-3-yl)oxy)pyridin-4-yl)-3,5-dimethyl-1H-pyrazol-1-yl)methyl)cyclobutane-1-carboxamide]: the IC50 in experiment [1] and in experiment [2] was 0.001 to 10 µM each time.
As to `Cc1nn(CC2(O)COC2)c(C)c1-c1ccnc(O[C@@H]2CCN(c3cn[nH]c(=O)c3Cl)C2)c1` [P-0065, (R)-4-chloro-5-(3-((4-(1-((3-hydroxyoxetan-3-yl)methyl)-3,5-dimethyl-1H-pyrazol-4-yl)pyridin-2-yl)oxy)pyrrolidin-1-yl)pyridazin-3(2H)-one], the half-maximal inhibitory concentration (IC50) in experiment [1] and in experiment [2] was 0.001 to 10 µM in each case.
For the compound `CCn1nc(C)c(-c2ccnc(O[C@@H]3CCN(c4cn[nH]c(=O)c4Cl)C3)c2)c1C` [P-0077, (R)-4-chloro-5-(3-((4-(1-ethyl-3,5-dimethyl-1H-pyrazol-4-yl)pyridin-2-yl)oxy)pyrrolidin-1-yl)pyridazin-3(2H)-one], the IC50 in experiment [1] and in experiment [2] was 0.001 to 10 µM each time.
For the compound `CC(C)(O)Cn1cc(-c2ccnc(O[C@@H]3CCN(c4cn[nH]c(=O)c4Cl)C3)c2)cn1` [P-0228, (R)-4-chloro-5-(3-((4-(1-(2-hydroxy-2-methylpropyl)-1H-pyrazol-4-yl)pyridin-2-yl)oxy)pyrrolidin-1-yl)pyridazin-3(2H)-one], the IC50 in experiment [1] and in experiment [2] was 0.001 to 10 µM each time.
Turning to `Cc1nn(CC2CC2)c(C)c1-c1cc(F)nc(O[C@@H]2CCN(c3cn[nH]c(=O)c3Cl)C2)c1` [P-0152, (R)-4-chloro-5-(3-((4-(1-(cyclopropylmethyl)-3,5-dimethyl-1H-pyrazol-4-yl)-6-fluoropyridin-2-yl)oxy)pyrrolidin-1-yl)pyridazin-3(2H)-one], the IC50 in experiment [1] and in experiment [2] was 0.001 to 10 µM throughout.
On to `Cc1noc(C)c1-c1cc(O[C@@H]2CCN(c3cn[nH]c(=O)c3Cl)C2)ccn1` [P-0138, (R)-4-chloro-5-(3-((2-(3,5-dimethylisoxazol-4-yl)pyridin-4-yl)oxy)pyrrolidin-1-yl)pyridazin-3(2H)-one], for which the IC50 in experiment [1] and in experiment [2] was 0.001 to 10 µM throughout.
Turning to `CCCNS(=O)(=O)c1ccc(-c2ccnc(O[C@@H]3CCN(c4cn[nH]c(=O)c4Cl)C3)c2)c(C)c1` [P-0240, (R)-4-(2-((1-(5-chloro-6-oxo-1,6-dihydropyridazin-4-yl)pyrrolidin-3-yl)oxy)pyridin-4-yl)-3-methyl-N-propylbenzenesulfonamide], the IC50 in experiment [1] and in experiment [2] was 0.001 to 10 µM throughout.
Regarding `Cc1nn(C(F)F)c(C)c1-c1ccnc(O[C@@H]2CCN(c3cn[nH]c(=O)c3Cl)C2)c1` [P-0170, (R)-4-chloro-5-(3-((4-(1-(difluoromethyl)-3,5-dimethyl-1H-pyrazol-4-yl)pyridin-2-yl)oxy)pyrrolidin-1-yl)pyridazin-3(2H)-one], the IC50 in experiment [1] and in experiment [2] was 0.001 to 10 µM in each case.
Take `Cc1nn(CC23CC(C#N)(C2)C3)c(C)c1-c1ccnc(O[C@@H]2CCN(c3cnn(CCO)c(=O)c3Cl)C2)c1` [P-0034, (R)-3-((4-(2-((1-(5-chloro-1-(2-hydroxyethyl)-6-oxo-1,6-dihydropyridazin-4-yl)pyrrolidin-3-yl)oxy)pyridin-4-yl)-3,5-dimethyl-1H-pyrazol-1-yl)methyl)bicyclo[1.1.1]pentane-1-carbonitrile]: the IC50 in experiment [1] and in experiment [2] was 0.001 to 10 µM each time.
